From EPA's ToxValDB 9.5 (doi:10.2903/j.efsa.2018.5251)

Legend:
Hypoaspis aculeifer = test: LR50; higher = less toxic; conditions: acute
Apis mellifera = conditions: acute, mortality
Anas platyrhynchos = conditions: short-term; oral; feed; mortality
Lepomis macrochirus = conditions: acute; duration: 96 hours
Tagia sp. = conditions: for LC50: acute; for NOEC: chronic/long-term, duration: 8 weeks
Colinus virginianus = conditions: acute; oral; mortality
Rattus norvegicus = conditions: for LD50: acute, oral, mortality
Coturnix japonica = conditions: reproduction developmental
Folsomia candida = conditions: chronic/long-term; duration: 28 days
[1] = reproduction developmental, reproduction

Row | SMILES | LR50 (Hypoaspis aculeifer) [mg/kg] | LD50 (Apis mellifera; dermal) [µg/piece] | LD50 (Apis mellifera; oral, unspecified) [µg/piece] | LC50 (Anas platyrhynchos) [mg/kg] | LC50 (Lepomis macrochirus) [µg/mL] | LC50 (Tagia sp.; duration: 14 days) [mg/kg] | NOEC (Tagia sp.) [mg/kg] | LD50 (Colinus virginianus) [mg/kg-day] | LD50 (Rattus norvegicus) [mg/kg-day] | NOAEL (Rattus norvegicus; [1]) [mg/kg-day] | NOEL (Rattus norvegicus; [1]) [mg/kg-day] | NOAEL (Coturnix japonica) [mg/kg-day] | LC50 (Tagia sp.) [mg/kg] | LD50 (Rattus norvegicus; F) [mg/kg-day] | NOAEC (Folsomia candida) [mg/kg]
1 | COC(=O)[N-]S(=O)(=O)c1ccc(N)cc1.[Na+] [Asulam-sodium] | > 4370 | > 100 | > 124 | > 100000 | > 91.3 | 1000 | 181 | > 1830 | > 4560 | 46 | 46 | 65 |  |  | 
2 | Nc1ccc(S(N)(=O)=O)cc1 [Sulfanilamide] |  |  |  |  |  |  | 3.75 |  |  |  |  |  | > 1000 | > 2000 | 50
